Source: ChEMBL document CHEMBL4373715, “Discovery and Biological Evaluations of Halogenated 2,4-Diphenyl Indeno[1,2-b]pyridinol Derivatives as Potent Topoisomerase IIα-Targeted Chemotherapeutic Agents for Breast Cancer” (J Med Chem, 2019)

Experiments:
[1] = tested on: HCT-15; test: Antiproliferative activity against human HCT15 cells measured after 72 hrs by EZ-Cytox assay; type: functional, cell-based; details: HCT-15, 72 h
[2] = tested on: T47D; test: Antiproliferative activity against human T47D cells measured after 72 hrs by EZ-Cytox assay; type: functional, cell-based
[3] = tested on: DU-145; test: Antiproliferative activity against human DU145 cells measured after 72 hrs by EZ-Cytox assay; type: functional, cell-based; details: DU-145, 72 h
[4] = tested on: HeLa; test: Antiproliferative activity against human HeLa cells measured after 72 hrs by EZ-Cytox assay; type: functional, cell-based
[5] = target: T1, DNA topoisomerase 1 (Homo sapiens) (UniProt P11387); test: Inhibition of recombinant human topoisomerase 1-mediated relaxation of supercoiled pBR322 DNA at 100 uM measured after 30 mins by ethidium bromide staining based agarose gel electrophoresis relative to control
T1 sequence (whole entry): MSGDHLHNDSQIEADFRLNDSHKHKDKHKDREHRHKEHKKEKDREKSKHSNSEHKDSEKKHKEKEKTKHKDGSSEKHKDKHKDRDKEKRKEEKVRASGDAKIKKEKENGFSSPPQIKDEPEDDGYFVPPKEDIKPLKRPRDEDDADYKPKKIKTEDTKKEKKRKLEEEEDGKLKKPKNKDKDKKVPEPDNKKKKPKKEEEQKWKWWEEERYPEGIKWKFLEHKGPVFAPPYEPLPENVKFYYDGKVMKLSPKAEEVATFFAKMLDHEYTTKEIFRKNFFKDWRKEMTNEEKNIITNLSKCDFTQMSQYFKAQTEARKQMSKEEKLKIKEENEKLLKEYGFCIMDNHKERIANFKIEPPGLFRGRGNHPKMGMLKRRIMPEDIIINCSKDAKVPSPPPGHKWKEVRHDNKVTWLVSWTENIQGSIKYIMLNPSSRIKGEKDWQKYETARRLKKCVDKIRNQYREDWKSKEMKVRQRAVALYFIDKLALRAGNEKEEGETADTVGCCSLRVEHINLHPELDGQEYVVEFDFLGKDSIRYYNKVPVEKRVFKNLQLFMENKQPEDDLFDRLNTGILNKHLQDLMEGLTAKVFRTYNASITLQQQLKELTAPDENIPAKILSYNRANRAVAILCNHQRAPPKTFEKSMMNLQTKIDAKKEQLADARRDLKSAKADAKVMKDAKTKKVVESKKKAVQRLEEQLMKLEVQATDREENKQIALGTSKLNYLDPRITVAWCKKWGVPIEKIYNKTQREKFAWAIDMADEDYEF

[6] = target: DNA topoisomerase 2-alpha (Homo sapiens) (UniProt P11388); test: Inhibition of recombinant human topoisomerase 2alpha-mediated relaxation of supercoiled pBR322 DNA at 100 uM measured after 30 mins by ethidium bromide staining based agarose gel electrophoresis relative to control
[7] = target: DNA topoisomerase 2-alpha (Homo sapiens) (UniProt P11388); test: Inhibition of recombinant human topoisomerase 2alpha-mediated relaxation of supercoiled pBR322 DNA at 20 uM measured after 30 mins by ethidium bromide staining based agarose gel electrophoresis relative to control

DNA topoisomerase 2-alpha (Homo sapiens), sequence (P11388 whole entry): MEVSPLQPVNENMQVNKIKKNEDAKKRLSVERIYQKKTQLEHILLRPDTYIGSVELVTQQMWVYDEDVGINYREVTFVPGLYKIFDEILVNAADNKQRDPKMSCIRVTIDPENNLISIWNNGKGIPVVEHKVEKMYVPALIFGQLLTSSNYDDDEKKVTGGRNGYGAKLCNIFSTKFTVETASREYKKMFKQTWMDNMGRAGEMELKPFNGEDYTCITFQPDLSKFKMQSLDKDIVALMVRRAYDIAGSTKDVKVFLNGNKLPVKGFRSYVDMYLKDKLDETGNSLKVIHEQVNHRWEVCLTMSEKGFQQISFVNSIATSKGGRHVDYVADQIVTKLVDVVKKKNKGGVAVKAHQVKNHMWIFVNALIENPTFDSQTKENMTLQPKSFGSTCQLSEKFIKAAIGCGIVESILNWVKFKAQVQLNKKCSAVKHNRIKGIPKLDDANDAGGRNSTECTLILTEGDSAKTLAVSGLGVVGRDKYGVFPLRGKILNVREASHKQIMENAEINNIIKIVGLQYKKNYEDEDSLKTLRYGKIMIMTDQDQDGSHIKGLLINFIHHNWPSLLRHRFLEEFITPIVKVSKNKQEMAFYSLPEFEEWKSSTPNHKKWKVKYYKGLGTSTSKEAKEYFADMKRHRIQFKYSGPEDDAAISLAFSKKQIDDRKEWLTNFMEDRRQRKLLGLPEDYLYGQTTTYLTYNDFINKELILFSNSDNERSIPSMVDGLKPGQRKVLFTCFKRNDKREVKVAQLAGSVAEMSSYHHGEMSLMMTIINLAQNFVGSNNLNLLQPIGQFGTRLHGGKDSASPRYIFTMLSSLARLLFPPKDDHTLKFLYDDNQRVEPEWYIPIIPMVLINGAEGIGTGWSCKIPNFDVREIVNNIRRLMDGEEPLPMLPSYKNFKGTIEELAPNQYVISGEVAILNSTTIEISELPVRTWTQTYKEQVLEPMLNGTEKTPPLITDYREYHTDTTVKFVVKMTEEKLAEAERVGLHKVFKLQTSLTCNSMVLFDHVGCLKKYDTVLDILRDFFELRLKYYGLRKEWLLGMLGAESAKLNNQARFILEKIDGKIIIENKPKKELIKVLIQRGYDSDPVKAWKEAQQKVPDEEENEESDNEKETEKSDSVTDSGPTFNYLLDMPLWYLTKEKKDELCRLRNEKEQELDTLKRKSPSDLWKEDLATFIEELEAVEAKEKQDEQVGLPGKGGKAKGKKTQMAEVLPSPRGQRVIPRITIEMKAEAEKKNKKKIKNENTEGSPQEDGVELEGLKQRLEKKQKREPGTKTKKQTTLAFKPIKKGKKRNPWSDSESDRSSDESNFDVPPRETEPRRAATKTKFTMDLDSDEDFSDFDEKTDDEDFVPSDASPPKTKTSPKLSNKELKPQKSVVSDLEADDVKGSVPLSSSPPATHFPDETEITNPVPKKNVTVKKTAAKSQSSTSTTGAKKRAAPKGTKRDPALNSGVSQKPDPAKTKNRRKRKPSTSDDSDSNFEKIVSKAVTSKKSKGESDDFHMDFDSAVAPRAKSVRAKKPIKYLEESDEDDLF

inhibition [5] | inhibition [6] | inhibition [7] | Structure (SMILES) | IC50 [1] | IC50 [2] | IC50 [3] | IC50 [4]
5.2% | 90.7% | 10.5% | Oc1cccc(-c2cc(-c3cccc(C(F)(F)F)c3)nc3c2Cc2ccc(O)cc2-3)c1 | 8.61 µM | 1.33 µM | 1.54 µM | 4.7 µM
26.8% | 97.5% | 4.4% | Oc1ccc2c(c1)Cc1c(-c3ccccc3O)cc(-c3ccc(Cl)cc3)nc1-2 | 3.97 µM | 0.62 µM | 0.65 µM | 3.84 µM
0% | 74.5% | 0% | Oc1ccc(-c2cc(-c3ccc(Cl)cc3)nc3c2Cc2ccc(O)cc2-3)cc1 | 3.22 µM | 1.15 µM | 2.25 µM | 1.73 µM
10.3% | 66.9% | 0.8% | Oc1ccc(-c2cc(-c3ccccc3Cl)c3c(n2)-c2c(O)cccc2C3)cc1 | 1.05 µM | 0.96 µM | 0.86 µM | 2.79 µM
4% | 74.8% | 2% | Oc1ccc(-c2cc(-c3ccccc3Cl)c3c(n2)-c2cc(O)ccc2C3)cc1 | 2.91 µM | 1.64 µM | 4.65 µM | 6.5 µM
1.9% | 67.2% | 4% | Oc1ccc2c(c1)-c1nc(-c3ccccc3O)cc(-c3cccc(Cl)c3)c1C2 | 29.8 µM | 7.69 µM | 37.1 µM | 20 µM
14.2% | 95.3% | 10.8% | Oc1ccc(-c2cc(-c3ccc(Cl)cc3)c3c(n2)-c2cc(O)ccc2C3)cc1 | 12 µM | 2.67 µM | 1.74 µM | 10.1 µM
9.1% | 44.6% | 4.9% | Oc1cccc(-c2cc(-c3ccccc3F)nc3c2Cc2cc(O)ccc2-3)c1 | 3.58 µM | 2.24 µM | 1.62 µM | 3.98 µM
7.7% | 98.1% | 8.9% | Oc1ccc(-c2cc(-c3ccc(Cl)cc3)c3c(n2)-c2ccc(O)cc2C3)cc1 | 18.5 µM | 1.51 µM | 1.43 µM | 6.83 µM
13.9% | 85.9% | 0% | Oc1ccc(-c2cc(-c3ccccc3C(F)(F)F)nc3c2Cc2cc(O)ccc2-3)cc1 | 2.43 µM | 1.05 µM | 2.31 µM | 2.07 µM
15.9% | 65.2% | 3.3% | Oc1cccc(-c2cc(-c3ccccc3C(F)(F)F)nc3c2Cc2cccc(O)c2-3)c1 | 2.1 µM | 1.75 µM | 1.14 µM | 4.69 µM
9.4% | 84.4% | 0% | Oc1ccc(-c2cc(-c3cccc(C(F)(F)F)c3)nc3c2Cc2c(O)cccc2-3)cc1 | 2.62 µM | 1.23 µM | 1.75 µM | 4.57 µM
8% | 86.6% | 25.7% | Oc1ccc2c(c1)-c1nc(-c3ccc(Cl)cc3)cc(-c3ccccc3O)c1C2 | 1.78 µM | 0.72 µM | 0.49 µM | 4.61 µM
1.8% | 79% | 3.1% | Oc1cccc(-c2cc(-c3ccccc3C(F)(F)F)nc3c2Cc2ccc(O)cc2-3)c1 | 1.67 µM | 1.22 µM | 1.83 µM | 3.71 µM
13.6% | 92.2% | 0.9% | Oc1ccccc1-c1cc(-c2ccc(C(F)(F)F)cc2)nc2c1Cc1cccc(O)c1-2 | 3.49 µM | 4.2 µM | 4.5 µM | 5.24 µM
0% | 100% | 3% | Oc1ccc2c(c1)-c1nc(-c3ccc(C(F)(F)F)cc3)cc(-c3ccccc3O)c1C2 | 3.25 µM | 0.67 µM | 2.8 µM | 2.23 µM
14.6% | 80.8% | 2.6% | Oc1ccc2c(c1)Cc1c(-c3ccccc3O)cc(-c3cccc(Cl)c3)nc1-2 | 2.76 µM | 2.77 µM | 0.36 µM | 2.69 µM
0.9% | 47.6% | 1.4% | Oc1ccc(-c2cc(-c3ccc(F)cc3)nc3c2Cc2ccc(O)cc2-3)cc1 | 2.54 µM | 1.14 µM | 2.34 µM | 2.25 µM
0% | 30.3% | 3.6% | Oc1ccc(-c2cc(-c3ccccc3Cl)nc3c2Cc2cccc(O)c2-3)cc1 | 2.97 µM | 0.61 µM | 0.19 µM | 2.85 µM

More lines, now with the values behind:

Structure (SMILES) | inhibition [5] | inhibition [6] | inhibition [7] | IC50 [1] | IC50 [2] | IC50 [3] | IC50 [4]
Oc1cccc(-c2cc(-c3cccc(C(F)(F)F)c3)nc3c2Cc2cccc(O)c2-3)c1 | 0.2% | 71.6% | 0.7% | 14.2 µM | 3.63 µM | 2.77 µM | > 50 µM
Oc1cccc(-c2cc(-c3ccc(Cl)cc3)nc3c2Cc2cccc(O)c2-3)c1 | 7.4% | 85.2% | 26.5% | 3.05 µM | 3.5 µM | 0.36 µM | 6.74 µM
Oc1ccc2c(c1)-c1nc(-c3ccccc3)cc(-c3ccccc3O)c1C2 | 0% | 97.4% | 0% | 3.01 µM | 2.33 µM | 0.15 µM | 3.74 µM
Oc1ccccc1-c1cc(-c2cccc(C(F)(F)F)c2)nc2c1Cc1c(O)cccc1-2 | 0.3% | 94.2% | 5.3% | 3.34 µM | 0.77 µM | 1.87 µM | 4.25 µM
Oc1ccccc1-c1cc(-c2ccccc2Cl)c2c(n1)-c1c(O)cccc1C2 | 23.9% | 56.5% | 1.6% | 2.03 µM | 2.93 µM | 5.67 µM | > 50 µM
Oc1ccc2c(c1)-c1nc(-c3cccc(Cl)c3)cc(-c3ccccc3O)c1C2 | 22.9% | 87.9% | 10.8% | 1.76 µM | 1.16 µM | 0.32 µM | 2.77 µM
Oc1cccc(-c2cc(-c3cccc(F)c3)nc3c2Cc2c(O)cccc2-3)c1 | 9.8% | 43.2% | 5.6% | 4.9 µM | 0.89 µM | 2.37 µM | 7.04 µM
Oc1cccc(-c2cc(-c3cccc(Cl)c3)nc3c2Cc2c(O)cccc2-3)c1 | 0.5% | 100% | 24.1% | 1.13 µM | 1.52 µM | 1.49 µM | 3.31 µM
Oc1ccc(-c2cc(-c3ccc(F)cc3)nc3c2Cc2cccc(O)c2-3)cc1 | 1.2% | 75.3% | 1.4% | > 50 µM | 24.5 µM | > 50 µM | > 50 µM
Oc1ccc(-c2cc(-c3ccc(F)cc3)nc3c2Cc2c(O)cccc2-3)cc1 | 14.7% | 50.8% | 3.6% | 2.23 µM | 1.37 µM | 1.84 µM | 4.88 µM
Oc1cccc(-c2cc(-c3ccccc3Cl)c3c(n2)-c2cccc(O)c2C3)c1 | 28.1% | 67.5% | 11.4% | 8.28 µM | 2.88 µM | 5.63 µM | 7.36 µM
Oc1cccc(-c2cc(-c3cccc(F)c3)nc3c2Cc2ccc(O)cc2-3)c1 | 17.1% | 44.2% | 4.9% | 1.19 µM | 0.54 µM | 2.17 µM | 3.45 µM
Oc1cccc2c1Cc1c(-c3ccccc3)cc(-c3ccccc3)nc1-2 | 4.6% | 75.7% | 1.3% | 3.39 µM | 1.77 µM | 2.71 µM | 4.18 µM
Oc1cccc(-c2cc(-c3ccc(Cl)cc3)c3c(n2)-c2cccc(O)c2C3)c1 | 0% | 86.3% | 4.4% | 2.58 µM | 2.11 µM | 3.94 µM | 4.63 µM
